Active and inactive are the calls of the source. No cut-off for these calls is given here.
Experiments:
Jurkat = experiment: Antiproliferative activity against human Jurkat cells assessed as cell growth inhibition measured after 72 hrs by SRB assay; assay type: functional, cell-based
[1] = molecular target: T1, NEDD8 activating enzyme (Homo sapiens) (UniProt Q8TBC4+Q13564); experiment: Inhibition of NAE in human HuTu80 cells mediated neddylation assessed as accumulation of gamma-H2AX incubated for 24 hrs by Western blotting analysis; assay type: cell-based
RKO = experiment: Antiproliferative activity against human RKO cells assessed as cell growth inhibition measured after 72 hrs by SRB assay; assay type: functional, cell-based
[2] = molecular target: T1, NEDD8 activating enzyme (Homo sapiens); experiment: Inhibition of NAE in human HuTu80 cells mediated neddylation assessed as accumulation of CDT1 incubated for 24 hrs by Western blotting analysis; assay type: cell-based; conditions: dose <= 1.0 µM, DDE = dose-dependent effect
HCT-116 [3] = experiment: Induction of cell cycle arrest in human HCT-116 cells assessed as accumulation of cells at G2/M phase incubated for 24 hrs by PI-staining-based flow cytometry; assay type: functional
[4] = molecular target: T1, NEDD8 activating enzyme (Homo sapiens); experiment: Inhibition of NAE in human HCT-116 cells mediated neddylation assessed as accumulation of p21 incubated for 24 hrs by Western blotting analysis; assay type: cell-based; conditions: dose <= 1.0 µM, DDE = dose-dependent effect
HCT-116 [5] = experiment: Induction of cell cycle arrest in human HCT-116 cells assessed as accumulation of cells at S phase at higher concentration incubated for 24 hrs by PI-staining-based flow cytometry; assay type: functional
HCT-116 [6] = experiment: Antitumor activity against human HCT-116 cells xenografted in nude mouse assessed as reduction in tumor growth at 130 mg/kg, sc qd for upto 18 days; assay type: functional; conditions: time <= 18 day
[7] = Observed AUCinfinity in Sprague-Dawley rat at 1 mg/kg, iv; assay type: ADME, organism-based; set-up: time infinity, dose 1 mg/kg, route iv; conditions: in vivo
LNCaP-Clone-FGC = experiment: Antiproliferative activity against human LNCaP-Clone-FGC cells assessed as cell growth inhibition measured after 72 hrs by SRB assay; assay type: functional, cell-based
HCT-116 [8] = experiment: Induction of cell cycle arrest in human HCT-116 cells assessed as increase in > 4N cells at higher concentration incubated for 24 hrs by PI-staining-based flow cytometry; assay type: functional
[9] = molecular target: T1, NEDD8 activating enzyme (Homo sapiens); experiment: Inhibition of NAE in human HCT-116 cells mediated neddylation assessed as accumulation of p27 incubated for 24 hrs by Western blotting analysis; assay type: cell-based; conditions: dose <= 1.0 µM, DDE = dose-dependent effect
HCT-116 [10] = experiment: Antiproliferative activity against human HCT-116 cells assessed as cell growth inhibition by sulforhodamine B assay; assay type: functional, cell-based
NEDD8 activating enzyme = molecular target: T2, NEDD8 activating enzyme (Homo sapiens, UniProt Q8TBC4); experiment: Inhibition of NAE (unknown origin) mediated neddylation assessed as decrease in NEDD8-Ubcl2 adduct formation incubated for 2 hrs in presence of L-glutathione and ATP by HTRF assay; assay type: protein-complex assay
T2 sequence (Q8TBC4 whole entry): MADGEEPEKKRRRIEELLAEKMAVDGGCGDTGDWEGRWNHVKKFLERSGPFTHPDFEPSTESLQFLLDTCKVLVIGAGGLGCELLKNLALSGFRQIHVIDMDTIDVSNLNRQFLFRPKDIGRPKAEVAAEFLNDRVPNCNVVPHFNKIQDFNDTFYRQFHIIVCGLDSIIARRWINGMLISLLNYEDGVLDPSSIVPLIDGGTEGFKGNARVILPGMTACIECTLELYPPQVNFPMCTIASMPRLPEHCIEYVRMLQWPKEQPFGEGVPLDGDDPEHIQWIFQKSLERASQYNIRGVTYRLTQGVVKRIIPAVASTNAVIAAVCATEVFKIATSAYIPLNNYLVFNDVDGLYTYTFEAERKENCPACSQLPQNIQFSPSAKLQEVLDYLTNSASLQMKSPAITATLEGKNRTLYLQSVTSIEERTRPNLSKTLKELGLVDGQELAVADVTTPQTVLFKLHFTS
T2 sequence (Q13564 whole entry): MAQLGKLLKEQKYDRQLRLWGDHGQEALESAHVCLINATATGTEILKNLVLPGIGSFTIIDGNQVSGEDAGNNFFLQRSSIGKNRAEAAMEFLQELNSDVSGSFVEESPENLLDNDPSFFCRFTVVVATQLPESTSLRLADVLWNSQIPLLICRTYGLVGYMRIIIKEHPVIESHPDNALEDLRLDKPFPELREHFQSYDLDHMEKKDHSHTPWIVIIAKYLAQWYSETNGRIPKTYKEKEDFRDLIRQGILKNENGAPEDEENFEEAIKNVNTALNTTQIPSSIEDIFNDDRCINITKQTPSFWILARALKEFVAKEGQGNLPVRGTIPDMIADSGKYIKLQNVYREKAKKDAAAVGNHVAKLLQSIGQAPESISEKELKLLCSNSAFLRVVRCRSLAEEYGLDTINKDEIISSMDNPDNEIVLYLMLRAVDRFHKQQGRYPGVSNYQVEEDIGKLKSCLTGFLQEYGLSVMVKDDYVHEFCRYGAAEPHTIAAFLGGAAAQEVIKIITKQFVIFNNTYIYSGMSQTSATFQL

HCT-116 [11] = experiment: Induction of apoptosis in human HCT-116 cells assessed as increase in cleaved caspase-3 level upto 1 uM incubated for 48 hrs by Western blot analysis; assay type: functional, cell-based
[12] = Volume of distribution at steady state in Sprague-Dawley rat at 1 mg/kg, iv; assay type: ADME, organism-based; conditions: in vivo, read-out: Vdss
[13] = molecular target: T1, NEDD8 activating enzyme (Homo sapiens); experiment: Inhibition of NAE in human HuTu80 cells mediated neddylation assessed as increase in CHK phosphorylation incubated for 24 hrs by Western blotting analysis; assay type: cell-based
[14] = molecular target: T1, NEDD8 activating enzyme (Homo sapiens); experiment: Inhibition of NAE in human HuTu80 cells mediated neddylation assessed as accumulation of p21 incubated for 24 hrs by Western blotting analysis; assay type: cell-based; conditions: dose <= 1.0 µM, DDE = dose-dependent effect
[15] = molecular target: Voltage-gated inwardly rectifying potassium channel KCNH2 (Homo sapiens, UniProt Q12809); experiment: Inhibition of hERG channel; assay type: toxicity
HCT-116 [16] = experiment: Induction of apoptosis in human HCT-116 cells assessed as increase in cleaved PARP1 level upto 1 uM incubated for 48 hrs by Western blot analysis; assay type: functional, cell-based
HCT-116 [17] = experiment: Antiproliferative activity against human HCT-116 cells assessed as cell growth inhibition measured after 72 hrs by SRB assay; assay type: functional, cell-based; conditions: HCT-116, 72 h
[18] = molecular target: T1, NEDD8 activating enzyme (Homo sapiens); experiment: Inhibition of NAE in human HCT-116 cells mediated neddylation assessed as increase in CHK phosphorylation incubated for 24 hrs by Western blotting analysis; assay type: cell-based
DU-145 = experiment: Antiproliferative activity against human DU-145 cells assessed as cell growth inhibition measured after 72 hrs by SRB assay; assay type: functional, cell-based; conditions: DU-145, 72 h
[19] = molecular target: T1, NEDD8 activating enzyme (Homo sapiens); experiment: Inhibition of NAE in human HCT-116 cells mediated neddylation assessed as accumulation of IkappaBalpha (Ser32/36) incubated for 24 hrs by Western blotting analysis; assay type: cell-based; conditions: dose <= 1.0 µM, DDE = dose-dependent effect
[20] = Observed MRTinfinity in Sprague-Dawley rat at 1 mg/kg, iv; assay type: ADME, organism-based; conditions: in vivo
MV4-11 = experiment: Antiproliferative activity against human MV4-11 cells assessed as cell growth inhibition measured after 72 hrs by SRB assay; assay type: functional, cell-based; conditions: MV4-11, 72 h
[21] = molecular target: T1, NEDD8 activating enzyme (Homo sapiens); experiment: Inhibition of NAE in human HuTu80 cells mediated neddylation assessed as accumulation of p27 incubated for 24 hrs by Western blotting analysis; assay type: cell-based; conditions: dose <= 1.0 µM, DDE = dose-dependent effect
[22] = AUClast in Sprague-Dawley rat at 1 mg/kg, iv; assay type: ADME, organism-based; set-up: time 0 - last, dose 1 mg/kg, route iv; conditions: in vivo
HuTu80 = experiment: Antiproliferative activity against human HuTu80 cells assessed as cell growth inhibition measured after 72 hrs by SRB assay; assay type: functional, cell-based; conditions: HuTu80, 72 h
[23] = molecular target: T1, NEDD8 activating enzyme (Homo sapiens); experiment: Inhibition of NAE in human HCT-116 cells mediated neddylation assessed as accumulation of CDT1 incubated for 24 hrs by Western blotting analysis; assay type: cell-based; conditions: dose <= 1.0 µM, DDE = dose-dependent effect
[24] = molecular target: T1, NEDD8 activating enzyme (Homo sapiens); experiment: Inhibition of NAE in human HuTu80 cells mediated neddylation assessed as accumulation of IkappaBalpha (Ser32/36) incubated for 24 hrs by Western blotting analysis; assay type: cell-based; conditions: dose <= 1.0 µM, DDE = dose-dependent effect
[25] = Half life in Sprague-Dawley rat at 1 mg/kg, iv; assay type: ADME, organism-based; conditions: in vivo
HCT-116 [26] = experiment: Induction of apoptosis in human HCT-116 cells assessed as increase in cleaved caspase-7 level upto 1 uM incubated for 48 hrs by Western blot analysis; assay type: functional, cell-based
HT-29 = experiment: Antiproliferative activity against human HT-29 cells assessed as cell growth inhibition measured after 72 hrs by SRB assay; assay type: functional, cell-based; conditions: HT-29, 72 h
[27] = Toxicity in nude mouse xenografted with human HCT-116 cells assessed as effect on body weight at 65 to 130 mg/kg, sc qd for upto 18 days; assay type: organism-based; conditions: in vivo, 432 h, dose 65-130 mg/kg, time < 18 day
[28] = Clearance in Sprague-Dawley rat at 1 mg/kg, iv; assay type: ADME, organism-based; conditions: in vivo
[29] = Inhibition of UAE (unknown origin) […] assessed as decrease in UbcH10-Ub adduct formation incubated for 2 hrs in presence of L-glutathione and ATP by HTRF assay; set-up: species or system Homo sapiens
[30] = molecular target: T1, NEDD8 activating enzyme (Homo sapiens); experiment: Inhibition of NAE in human HCT-116 cells mediated neddylation assessed as accumulation of gamma-H2AX incubated for 24 hrs by Western blotting analysis; assay type: cell-based
THP-1 = experiment: Antiproliferative activity against human THP-1 cells assessed as cell growth inhibition measured after 72 hrs by SRB assay; assay type: functional, cell-based; conditions: THP-1, 72 h
CAPAN-1 = experiment: Antiproliferative activity against human CAPAN-1 cells assessed as cell growth inhibition measured after 72 hrs by SRB assay; assay type: functional, cell-based; conditions: CAPAN-1, 72 h

Voltage-gated inwardly rectifying potassium channel KCNH2, sequence (Q12809 whole entry): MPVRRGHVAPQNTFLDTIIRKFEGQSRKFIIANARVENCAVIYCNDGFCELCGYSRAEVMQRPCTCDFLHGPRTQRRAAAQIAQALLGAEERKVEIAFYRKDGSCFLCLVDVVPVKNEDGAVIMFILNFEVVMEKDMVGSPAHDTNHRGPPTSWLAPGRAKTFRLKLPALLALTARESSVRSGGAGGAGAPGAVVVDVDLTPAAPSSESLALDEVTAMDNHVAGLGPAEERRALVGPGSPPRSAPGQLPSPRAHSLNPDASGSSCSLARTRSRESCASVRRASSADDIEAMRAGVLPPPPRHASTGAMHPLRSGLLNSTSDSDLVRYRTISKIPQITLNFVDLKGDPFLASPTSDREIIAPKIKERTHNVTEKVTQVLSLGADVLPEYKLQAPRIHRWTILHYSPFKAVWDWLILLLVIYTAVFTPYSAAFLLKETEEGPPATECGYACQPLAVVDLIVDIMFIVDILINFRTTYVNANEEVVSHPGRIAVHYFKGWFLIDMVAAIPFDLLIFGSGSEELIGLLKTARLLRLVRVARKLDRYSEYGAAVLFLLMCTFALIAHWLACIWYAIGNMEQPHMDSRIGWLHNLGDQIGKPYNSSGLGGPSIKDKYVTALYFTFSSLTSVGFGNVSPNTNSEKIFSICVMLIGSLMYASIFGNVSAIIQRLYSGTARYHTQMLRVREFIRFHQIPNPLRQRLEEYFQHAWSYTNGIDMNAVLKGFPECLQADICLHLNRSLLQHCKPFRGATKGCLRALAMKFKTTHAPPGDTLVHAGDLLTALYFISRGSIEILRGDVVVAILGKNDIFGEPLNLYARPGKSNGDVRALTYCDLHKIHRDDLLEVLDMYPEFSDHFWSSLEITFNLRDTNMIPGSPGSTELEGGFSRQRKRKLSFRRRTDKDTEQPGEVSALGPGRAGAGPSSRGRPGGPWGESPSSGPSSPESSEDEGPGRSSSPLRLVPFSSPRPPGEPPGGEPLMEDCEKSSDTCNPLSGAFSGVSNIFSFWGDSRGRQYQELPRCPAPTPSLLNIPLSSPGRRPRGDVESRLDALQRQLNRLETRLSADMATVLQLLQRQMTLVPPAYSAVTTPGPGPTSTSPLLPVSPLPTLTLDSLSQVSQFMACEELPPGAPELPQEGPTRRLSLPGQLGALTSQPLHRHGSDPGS

IC50 (Jurkat): 482 nM | inhibition [1]: Active | inhibition [2]: Dde | inhibition [4]: Dde | AUC(0-inf) [7]: 563 ng·h/mL | IC50 (LNCaP-Clone-FGC): 264 nM | inhibition [9]: Dde | IC50 (HCT-116 [10]): 36.2 nM | IC50 (NEDD8 activating enzyme): 0.55 nM | Vd [12]: 1.78 L/kg | inhibition [13]: Active | inhibition [14]: Dde | IC50 (HCT-116 [17]): 33.9 nM | inhibition [18]: Active | IC50 (DU-145): 482 nM | inhibition [19]: Dde | MRT inf [20]: 60 min | IC50 (MV4-11): 106 nM | inhibition [21]: Dde | AUC(0-t) [22]: 560 ng·h/mL | inhibition [23]: Dde | inhibition [24]: Dde | half-life [25]: 42.6 min | IC50 (HT-29): 407 nM | clearance [28]: 29.7 mL/min/kg | IC50 [29]: 66.8 nM | inhibition [30]: Active | IC50 (THP-1): 353 nM
SMILES: COC(=O)N1CCC2(CC1)C[C@H](Nc1ncnc3c1nnn3[C@@H]1C[C@@H](COS(N)(=O)=O)[C@@H](O)C1)c1ccccc12
IC50 (RKO): 286 nM | Activity (HCT-116 [3]): Active | Activity (HCT-116 [5]): Active | T/C (HCT-116 [6]): 0.19 | Activity (HCT-116 [8]): Active | Activity (HCT-116 [11]): Active | IC50 [15]: > 40000 nM | Activity (HCT-116 [16]): Active | IC50 (HuTu80): 40 nM | Activity (HCT-116 [26]): Active | Activity [27]: Non-Toxic | IC50 (CAPAN-1): 101 nM
